Laboratory results reported in patent US6525099B1, “N-substituted sulfonamide derivatives” (Eli Lilly and Company, priority 1998, dated 2003).

Tests used:
[1] = biological target: T1, human GluR4B receptor (Homo sapiens, UniProt P48058); assay: potentiation of glutamate receptor-mediated response in HEK cells stably expressing human GluR4B (Fluo-3 calcium fluorescence); format: cell-based; settings: human GluR4B receptor expressed in HEK 293 cells
T1 construct: expressed in transfected cells
Source text: The ability of compounds of formula I to potentiate glutamate receptor-mediated response may be determined using fluorescent calcium indicator dyes (Molecular Probes, Eugene, Oreg., Fluo-3) and by measuring glutamate-evoked efflux of calcium into GluR4 transfected HEK293 cells, as described in more detail below.
In one test, 96 well plates containing confluent monolayers of HEK cells stably expressing human GluR4B (obtained as described in European Patent Application Publication Number EP-A1-583917) are prepared. The tissue culture medium in the wells is then discarded, and the wells are each washed once with 200 μl of buffer (glucose, 10 mM, sodium chloride, 138 mM, magnesium chloride, 1 mM, potassium chloride, 5 mM, calcium chloride, 5 mM, N-[2-hydroxyethyl]-piperazine-N-[2-ethanesulfonic acid], 10 mM, to pH 7.1 to 7.3). […]
Each test is then performed as follows. […] A second fluorescent reading is taken after 5 minutes incubation. 15 μl of 400 μM glutamate solution is then added to each well (final glutamate concentration 100 μM), and a third reading is taken. The activities of test compounds and cyclothiazide solutions are determined by subtracting the second from the third reading (fluorescence due to addition of glutamate in the presence or absence of test compound or cyclothiazide) and are expressed relative to enhance fluorescence produced by 100 μM cyclothiazide.

T1 sequence (P48058 21-902): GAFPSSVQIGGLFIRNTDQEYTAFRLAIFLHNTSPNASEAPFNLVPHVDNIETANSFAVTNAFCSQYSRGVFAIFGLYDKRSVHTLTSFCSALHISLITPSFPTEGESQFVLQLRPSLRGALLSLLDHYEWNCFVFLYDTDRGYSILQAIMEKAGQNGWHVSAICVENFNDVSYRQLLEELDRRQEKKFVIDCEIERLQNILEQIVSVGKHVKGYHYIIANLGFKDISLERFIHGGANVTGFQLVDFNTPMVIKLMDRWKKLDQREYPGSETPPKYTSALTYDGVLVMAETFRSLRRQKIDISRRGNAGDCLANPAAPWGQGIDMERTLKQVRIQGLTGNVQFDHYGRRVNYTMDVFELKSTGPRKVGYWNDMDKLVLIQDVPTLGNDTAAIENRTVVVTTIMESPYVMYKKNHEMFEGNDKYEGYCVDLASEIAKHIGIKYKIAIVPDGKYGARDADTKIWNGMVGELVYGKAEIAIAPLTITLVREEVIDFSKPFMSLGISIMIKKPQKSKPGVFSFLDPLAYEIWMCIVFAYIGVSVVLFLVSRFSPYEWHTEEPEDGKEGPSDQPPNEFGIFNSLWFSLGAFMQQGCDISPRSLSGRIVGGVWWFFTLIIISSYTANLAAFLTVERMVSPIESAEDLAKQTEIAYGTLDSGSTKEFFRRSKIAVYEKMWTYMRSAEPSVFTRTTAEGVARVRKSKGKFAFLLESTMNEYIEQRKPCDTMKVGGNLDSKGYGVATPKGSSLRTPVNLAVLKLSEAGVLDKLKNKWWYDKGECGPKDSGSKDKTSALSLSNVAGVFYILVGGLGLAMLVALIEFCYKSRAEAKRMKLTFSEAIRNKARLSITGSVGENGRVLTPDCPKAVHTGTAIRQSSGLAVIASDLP

| melting point [°C] | SMILES | potentiation of agonist-induced excitability [1] |
| --- | --- | --- |
|  | NS(=O)(=O)c1cc2c(cc1Cl)NC(C1CC3C=CC1C3)NS2(=O)=O (stereo not drawn) [cyclothiazide] | potentiate agonist-induced excitability of human GluR4B receptor |
| 87 to 89.5 | CC(C)S(=O)(=O)NCC1(c2ccc(C(C)(C)C)cc2)CC1 |  |
| 82 to 84 | CC(C)(C)c1ccc(C2(CNS(=O)(=O)C(F)(F)F)CC2)cc1 |  |
